For assay [1], the target named is T1, BCL-XL (Homo sapiens, UniProt Q07817).
T1 construct: endogenous in cells; host or cells: MOLT-4
Nature of the assay: BCL-XL degradation assay, western blot in MOLT-4 cells, 16 h. The assay is classed as cell-based. To be noted: western blot, MOLT-4 cells, 16 h; for Dmax: read-out: Bcl-xL WB in MOLT-4 degradation 16 h: Average Dmax %; for DC50: read-out: Bcl-xL WB in MOLT-4 degradation 16 h: Mean external-Abs DC50. The procedure:
Compounds treatment: compounds were reconstituted in DMSO to make a stock concentration of 10 mM. MOLT-4 cells were maintained in RPMI-1640+10% FBS+1% Penicillin-Streptomycin. Cells were seeded into 6-well plates in 2 mL at the seeding density of 2e6 cells/mL. Compounds were added to the cells to a final concentration ranging 0.02-10 μM. After 16 hr incubation at 37° C., in a CO2 incubator, cells were collected in an Eppendorf tube and centrifuged at 200×g for 5 minutes, the supernatant removed and pellets washed with ice-cold PBS, centrifuged and supernatant removed again. Then. 50 μl of pre-chilled RIPA lysis buffer (Boston BioProducts. BP-115D) with protease and phosphatase inhibitors (Roche Applied Science. #04906837001 and #04693116001) was added into cell pellet to lyze the cells for 20 minutes under 4° C. Cell lysates were spin at 13000 rpm for 10 minutes. Supernatants were collected and protein concentration was measured by BCA assay kit (Solarbio. PC0020-500) following the manufacturer's protocol. Samples' final protein concentration was adjusted to 3.75 μg/uL with the RIPA lysis buffer based on BCA assay results and 4× loading buffer (Invitrogen. NP0007) was added into the samples and samples were heated to 85° C., for 10 min and then let cool at RT. Samples were centrifuged at 13000 rpm for 10 min and then loaded into a 26-well NuPAGER. Novex 4-12% Bis-Tris Midi Gel (Invitrogen. WG1403BOX) and run in NuPAGER MOPS SDS Running Buffer (Invitrogen. NP0001) for 180 minutes at 70 V into a XCell4 SureLock™ Midi-Cell Runner (Invitrogen. WR0100). Gel were transferred using the Invitrogen iBlot gel transfer device (Invitrogen. IB21001) and the nitrocellulose transfer stacks (Invitrogen, IB23001) with Program PO for 9 minutes. The membrane was then blocked with 5% bovin serum albumin for 1 hr at RT, then incubated with primary antibodies diluted in blocking buffer (LI-COR. 927-60001) and shake at 4° C., overnight. The primary antibodies were anti-BCL-xL antibody (CST. 2762:1:1000), anti-beta-actin (CST. 3700; 1:5000) and anti-GAPDH (CST. 97166:1:5000). Membranes were then washed three times with PBST for 15 minutes at RT. Secondary antibodies IR-Dye 680 CW Goat anti Mouse IgG (LI-COR. 926-68070) and IR-Dye 800 CW Goat anti Rabbit IgG (LI-COR. 926-32211) were diluted at a ratio of 1:10000 into PBST and membranes incubated for 1 hour at RT. Membranes were then washed three times with PBST for 15 minutes at RT. The western blot images were obtained using Odyssey Imaging System and quantified using Image Studio Lite Ver 5.2 software.
(§1) The letter codes for BCL-XL DC50 include: A (<0.01 μM); B (0.01-0.1 μM); C (>[…]); D (>0.5-1.0 μM); and E (>1.0 μM). The letter codes for Dmax % include A (>75%); B (50 to 75%); C (<50%).

Assay [2] addresses T1, BCL-XL. Nature of the assay: Bcl-xL ELISA degradation in MOLT-4 cells, 6 h. Type of assay: cell-based. To be noted: for DC50: read-out: Bcl-xL ELISA in MOLT-4 degradation 6 h: Mean external-Abs DC50. As for the experimental part: as §1

T1 sequence (Q07817 whole entry): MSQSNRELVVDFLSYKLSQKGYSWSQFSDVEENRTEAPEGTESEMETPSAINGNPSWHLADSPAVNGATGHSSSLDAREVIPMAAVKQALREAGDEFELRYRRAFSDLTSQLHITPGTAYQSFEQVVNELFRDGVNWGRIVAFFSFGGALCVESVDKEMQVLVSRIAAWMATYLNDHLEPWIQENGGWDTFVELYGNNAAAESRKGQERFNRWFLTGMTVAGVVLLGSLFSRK

As to `Cc1ncsc1-c1ccc([C@H](C)NC(=O)[C@@H]2C[C@@H](O)CN2C(=O)[C@@H](NC(=O)CCCCCCCS(=O)(=O)NC(=O)c2ccc(N3CCN(CC4=C(c5ccc(Cl)cc5)CCC(C)(C)C4)CC3)cc2)C(C)(C)C)cc1` [I-107], on BCL-XL [1], the Dmax (commonly the greatest extent of degradation seen) lay within 50 to 75% and the DC50 (in general, the concentration at which degradation of the target reaches its halfway point) is greater than 1 µM.
Turning to `Cc1ncsc1-c1ccc([C@H](C)NC(=O)[C@@H]2C[C@@H](O)CN2C(=O)[C@@H](NC(=O)CCCS(=O)(=O)NC(=O)c2nc(N3CCc4cccc(C(=O)Nc5nc6ccccc6s5)c4C3)ccc2-c2cnn(CC34CC5CC(CC(C5)C3)C4)c2C)C(C)(C)C)cc1` [I-117], at BCL-XL [1], the Dmax is greater than 75% and the DC50 is less than 0.01 µM.
With `Cc1ncsc1-c1ccc([C@H](C)NC(=O)[C@@H]2C[C@@H](O)CN2C(=O)[C@@H](NC(=O)CCCCCCCCC(=O)N2CCN(CC[C@H](CSc3ccccc3)Nc3ccc(S(=O)(=O)NC(=O)c4ccc(N5CCN(CC6=C(c7ccc(Cl)cc7)CCC(C)(C)C6)CC5)cc4)cc3S(=O)(=O)C(F)(F)F)CC2)C(C)(C)C)cc1` [I-1, (2S,4R)-1-((S)-2-(10-(4-((R)-3-((4-(N-(4-(4-((4′-chloro-4,4-dimethyl-3,4,5,6-tetrahydro-[1,1′-biphenyl]-2-yl)methyl)piperazin-1-yl)benzoyl)sulfamoyl)-2-((trifluoromethyl)sulfonyl)phenyl)amino)-4-(phenylthio)butyl)piperazin-1-yl)-10-oxodecanamido)-3,3-dimethylbutanoyl)-4-hydroxy-N-((S)-1-(4-(4-methylthiazol-5-yl)phenyl)ethyl)pyrrolidine-2-carboxamide], on BCL-XL [1], the Dmax is greater than 75% and the DC50 is 0.1 to 0.5 µM.
On to `Cc1ncsc1-c1ccc(CNC(=O)[C@@H]2C[C@@H](O)CN2C(=O)[C@@H](NC(=O)C2(F)CC2)C(C)(C)C)c(OCCCCCC(=O)N(C)CC#Cc2ccc(OCCCc3sc(N4CCc5cccc(C(=O)Nc6nc7ccccc7s6)c5C4)nc3C(=O)O)c(F)c2)c1` [I-7], for which, at BCL-XL [1], the Dmax fell in the range of 50 to 75% and the DC50 lay within 0.5 to 1 µM.
`Cc1cc(N(CCN(C)C(=O)CCCCCOc2cc(-c3scnc3C)ccc2CNC(=O)[C@@H]2C[C@@H](O)CN2C(=O)[C@@H](NC(=O)C2(F)CC2)C(C)(C)C)c2ccc(-c3cnn(CC4CCCCC4)c3C)c(C(=O)O)n2)nnc1Nc1nc2ccccc2s1` [I-103]: at BCL-XL [1], the Dmax is less than 50% and the DC50 was greater than 1 µM.
Take `Cc1ncsc1-c1ccc([C@H](C)NC(=O)[C@@H]2C[C@@H](O)CN2C(=O)[C@@H](NC(=O)CCCC(=O)N(C)CCCc2cccc(F)c2OCCCc2sc(N3CCc4cccc(C(=O)Nc5nc6ccccc6s5)c4C3)nc2C(=O)O)C(C)(C)C)cc1` [I-9]: at BCL-XL [1], the Dmax is greater than 75% and the DC50 lay in the range of 0.1 to 0.5 µM.
Turning to `Cc1ncsc1-c1ccc([C@H](C)NC(=O)[C@@H]2C[C@@H](O)CN2C(=O)[C@@H](NC(=O)N2CCC3(CCC(C(=O)N4CCN(CC[C@H](CSc5ccccc5)Nc5ccc(S(=O)(=O)NC(=O)c6ccc(N7CCN(CC8=C(c9ccc(Cl)cc9)CCC(C)(C)C8)CC7)cc6)cc5S(=O)(=O)C(F)(F)F)CC4)CC3)CC2)C(C)(C)C)cc1` [I-126], at BCL-XL [1], the greatest degradation seen (Dmax) was less than 50% and the DC50 was greater than 1 µM.
Turning to `Cc1cc(N(CCN(C)C(=O)CCCCCC(=O)N[C@H](C(=O)N2C[C@H](O)C[C@H]2C(=O)N[C@@H](C)c2ccc(-c3scnc3C)cc2)C(C)(C)C)c2ccc(-c3cnn(CC4CCCCC4)c3C)c(C(=O)O)n2)nnc1Nc1nc2ccccc2s1` [I-100], on BCL-XL [1], the Dmax fell in the range of 50 to 75% and the DC50 was 0.1 to 0.5 µM.
As to `Cc1ncsc1-c1ccc([C@H](C)NC(=O)[C@@H]2C[C@@H](O)CN2C(=O)C(c2cc(OC3CCN(CCCCNC(=O)c4nc(N5CCc6cccc(C(=O)Nc7nc8ccccc8s7)c6C5)ccc4-c4cnn(CC5CCCCC5)c4C)CC3)no2)C(C)C)cc1` (stereo partly shown) [I-233], at BCL-XL [2], the Dmax was less than 50% and the DC50 was greater than 1 µM.
Turning to `Cc1cc(N(C)c2ccc(-c3cnn(CC4CCCCC4)c3C)c(C(=O)NS(=O)(=O)c3ccc(N4CCC(C(=O)N[C@H](C(=O)N5C[C@H](O)C[C@H]5C(=O)N[C@@H](C)c5ccc(-c6scnc6C)cc5)C(C)(C)C)CC4)cc3)n2)nnc1Nc1nc2ccccc2s1` [I-244], at BCL-XL [2], the Dmax was greater than 75% and the DC50 is 0.01 to 0.1 µM.
Turning to `C#Cc1ccc(CNC(=O)[C@@H]2C[C@@H](O)CN2C(=O)[C@@H](c2cc(N3CCN(c4ccc(S(=O)(=O)NC(=O)c5nc(N6CCc7cccc(C(=O)Nc8nc9ccccc9s8)c7C6)ccc5-c5cnn(CC6CCCCC6)c5C)cc4)CC3)no2)C(C)C)cc1` [I-262], at BCL-XL [2], the Dmax was greater than 75% and the DC50 is less than 0.01 µM.
In the case of `Cc1ncsc1-c1ccc(CNC(=O)[C@@H]2C[C@@H](O)CN2C(=O)[C@@H](NC(=O)C2(F)CC2)C(C)(C)C)c(OC2CCN(CC[C@H](CSc3ccccc3)Nc3ccc(S(=O)(=O)NC(=O)c4ccc(N5CCN(CC6=C(c7ccc(Cl)cc7)CCC(C)(C)C6)CC5)cc4)cc3S(=O)(=O)C(F)(F)F)CC2)c1` [I-281], the Dmax on BCL-XL [2] is less than 50%.
For the molecule `Cc1ncsc1-c1ccc([C@H](C)NC(=O)[C@@H]2C[C@@H](O)CN2C(=O)[C@@H](NC(=O)C2CC3CCC(C2)N3c2ccc(S(=O)(=O)NC(=O)c3nc(N4CCc5cccc(C(=O)Nc6nc7ccccc7s6)c5C4)ccc3-c3cnn(CC4CCCCC4)c3C)cc2)C(C)(C)C)cc1` (stereo partly shown) [I-278], on BCL-XL [2], the Dmax is greater than 75% and the DC50 fell in the range of 0.01 to 0.1 µM.
Regarding `Cc1ncsc1-c1ccc([C@H](C)NC(=O)[C@@H]2C[C@@H](O)CN2C(=O)[C@@H](NC(=O)N2CCC(N3CCC(S(=O)(=O)NC(=O)c4nc(N5CCc6cccc(C(=O)Nc7nc8ccccc8s7)c6C5)ccc4-c4cnn(CC5CCCCC5)c4C)CC3)CC2)C(C)(C)C)cc1` [I-258], at BCL-XL [2], the Dmax was in the range of 50 to 75% and the DC50 was 0.1 to 0.5 µM.
Take `Cc1ncsc1-c1ccc([C@H](C)NC(=O)[C@@H]2C[C@@H](O)CN2C(=O)[C@H](c2cc(N3CC(N4CCC(NC(=O)c5nc(N6CCc7cccc(C(=O)Nc8nc9ccccc9s8)c7C6)ccc5-c5cnn(CC6CCCCC6)c5C)CC4)C3)no2)C(C)C)cc1` [I-235]: the Dmax on BCL-XL [2] is less than 50%.
Turning to `C#Cc1ccc(CNC(=O)[C@@H]2C[C@@H](O)CN2C(=O)[C@@H](NC(=O)C2CCN(c3ccc(S(=O)(=O)NC(=O)c4nc(N5CCc6cccc(C(=O)Nc7nc8ccccc8s7)c6C5)ccc4-c4cnn(CC5CCCCC5)c4C)cc3)CC2)C(C)(C)C)c(OC)c1` [I-254], at BCL-XL [2], the Dmax was greater than 75% and the DC50 was less than 0.01 µM.
As for `Cc1ncsc1-c1ccc([C@H](C)NC(=O)[C@@H]2C[C@@H](O)CN2C(=O)[C@@H](NC(=O)N2CCN(CC#Cc3ccc(OCCCc4sc(N5CCc6cccc(C(=O)Nc7nc8ccccc8s7)c6C5)nc4C(=O)O)c(F)c3)CC2)C(C)(C)C)cc1` [I-73], on BCL-XL [2], the Dmax is less than 50%.
`Cc1ncsc1-c1ccc([C@H](C)NC(=O)[C@@H]2C[C@@H](O)CN2C(=O)[C@@H](NC(=O)C2CCN(c3ccc(S(=O)(=O)NC(=O)c4nc(N5CCc6cccc(C(=O)Nc7nc8ccccc8s7)c6C5)ccc4-c4cnn(CC5(CCCN6CCN(C)CC6)CCCCC5)c4C)cc3)CC2)C(C)(C)C)cc1` [I-256]: at BCL-XL [2], the Dmax was in the range of 50 to 75% and the DC50 is 0.1 to 0.5 µM.
On the same counts, the results for `Cc1ncsc1-c1ccc([C@H](C)NC(=O)[C@@H]2C[C@@H](O)CN2C(=O)[C@H](c2cc(N3CC4(CN(c5ccc(S(=O)(=O)NC(=O)c6nc(N7CCc8cccc(C(=O)Nc9nc%10ccccc%10s9)c8C7)ccc6-c6cnn(CC7CCCCC7)c6C)cc5)C4)C3)no2)C(C)C)cc1` [I-225] are 50 to 75% and 0.01 to 0.1 µM.
Consider `Cc1cc(C(C(=O)N2C[C@H](O)C[C@H]2C(=O)NCc2ccc(-c3scnc3C)cc2OCCN2CCN(CC[C@H](CSc3ccccc3)Nc3ccc(S(=O)(=O)NC(=O)c4ccc(N5CCN(CC6=C(c7ccc(Cl)cc7)CCC(C)(C)C6)CC5)cc4)cc3S(=O)(=O)C(F)(F)F)CC2)C(C)C)on1` (stereo partly shown) [I-282], for which, on BCL-XL [2], the Dmax was in the range of 50 to 75% and the DC50 lay within 0.1 to 0.5 µM.

Source of the values: patent publication US20250197387A1, “BCL-XL DEGRADERS AND USES THEREOF” (Kymera Therapeutics, Inc., priority 2021, published 2025).
